According to patent US20230372307A1, “COMBINATION THERAPY USING BAX ACTIVATOR AGENT” (Albert Einstein College of Medicine, priority 2020, published 2023):
Like-named read-outs stand apart in the source and are kept apart here.

What was measured:
BCL-w = molecular target: T1, BCL-w (Homo sapiens, UniProt Q92843); settings: cited from earlier work
T1 sequence (Q92843 1-193): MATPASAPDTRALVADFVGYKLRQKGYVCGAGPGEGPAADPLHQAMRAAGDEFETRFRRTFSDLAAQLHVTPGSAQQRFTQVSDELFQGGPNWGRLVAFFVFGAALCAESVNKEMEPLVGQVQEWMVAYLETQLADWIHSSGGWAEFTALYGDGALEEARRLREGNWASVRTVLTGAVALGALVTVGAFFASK

BCL-XL = BCL-XL (Homo sapiens, UniProt Q07817); settings: cited from earlier work
Chain of BCL-XL (Q07817 whole entry): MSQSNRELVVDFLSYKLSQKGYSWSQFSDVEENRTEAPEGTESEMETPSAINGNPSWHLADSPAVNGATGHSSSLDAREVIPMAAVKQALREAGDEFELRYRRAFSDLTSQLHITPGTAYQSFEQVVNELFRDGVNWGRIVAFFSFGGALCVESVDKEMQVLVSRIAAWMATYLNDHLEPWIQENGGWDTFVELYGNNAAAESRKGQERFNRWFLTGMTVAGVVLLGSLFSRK

BCL-2 = BCL-2 (Homo sapiens, UniProt P10415); settings: cited from earlier work
Chain of BCL-2 (P10415 whole entry): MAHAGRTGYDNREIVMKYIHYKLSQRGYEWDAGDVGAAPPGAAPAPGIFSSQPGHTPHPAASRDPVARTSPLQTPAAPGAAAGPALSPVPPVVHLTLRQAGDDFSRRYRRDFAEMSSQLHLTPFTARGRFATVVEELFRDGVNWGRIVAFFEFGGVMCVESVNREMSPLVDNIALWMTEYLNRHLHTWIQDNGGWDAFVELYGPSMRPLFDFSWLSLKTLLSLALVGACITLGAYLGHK

SU-DHL5 = experiment: Cell viability assay (CellTiter-Glo) in SU-DHL5; assay type: cell-based; settings: Homo sapiens
Procedure: (§1) CELL VIABILITY ASSAY. […] Cell viability was assayed at 72 hrs by addition of CellTiter-Glo Assay reagents according to the manufacturer's protocol (Promega), and luminescence measured using a F200 PRO microplate reader (TECAN). […] Excluding high-throughput drug screenings, viability assays were performed in at least triplicate and the data normalized to 1% vehicle-treated control wells. IC50 values were determined by nonlinear regression analysis using Prism software (Graphpad). Dilutions of compounds was performed using a TECAN D300e Digital Dispenser from 10 mM stocks. The BLISS calculation was determined using the Combenefit program as previously described by Di Veroli et al., Bioinformatics.

[1] = system: leukemia and lymphoma cell lines; experiment: cells; settings: Homo sapiens, 72 h, read-out: mean cell viability IC50
Procedure: as §1

BAX = molecular target: T2, BAX (Homo sapiens, UniProt Q07812); experiment: BIM SAHB-BAX competition fluorescence polarization assay (FPA); assay type: binding; settings: FITC-BIM SAHBA2 50 nM, BAX 500 nM
T2 construct: serial dilutions of full-length BAX; made in house; host or cells: Escherichia coli
T2 sequence (Q07812 whole entry): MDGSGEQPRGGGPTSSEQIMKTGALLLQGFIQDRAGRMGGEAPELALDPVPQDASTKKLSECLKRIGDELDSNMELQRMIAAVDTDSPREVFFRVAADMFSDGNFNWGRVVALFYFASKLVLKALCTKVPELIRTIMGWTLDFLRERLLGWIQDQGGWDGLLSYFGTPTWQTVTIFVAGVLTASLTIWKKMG
Procedure: PRODUCTION OF RECOMBINANT BAX PROTEIN. […] BAX wild type was purified by size-exclusion chromatography in a buffer containing 20 mM HEPES pH 7.2, 150 mM KC1, 1 mM DTT. Superdex 75 10/300 GL and 200 10/300 GL (GE Healthcare) columns were used.
FLUORESCENCE POLARIZATION BINDING As SAYS. […] Firstly, direct binding isotherms were generated by incubating FITC-BIM SAHBA2 (50 nM) with serial dilutions of full-length BAX and fluorescence polarization was measured at 20 min on a F200 PRO microplate reader (TECAN). Subsequently, in competition assays, a serial dilution of small-molecule or acetylated BIM SAHBA2 (Ac-BIM SAHB) was combined with FITC-BIM SAHBA2 (50 nM), followed by the addition of recombinant protein at EC75 concentration, as determined by the direct binding assay (BAX: 500 nM). EC50 and IC50 values were calculated by nonlinear regression analysis of competitive binding curves using Graphpad Prism software.

SW480 = experiment: Cell viability (CellTiter-Glo), SW480; assay type: cell-based, human; settings: SW480, 72 hrs
Procedure: as §1

solid tumor cell lines = experiment: Cell viability, solid tumor cell lines of the 46-line panel; assay type: cell-based; settings: Homo sapiens, read-out: mean cell viability IC50
Procedure: as §1

[2] = Pharmacokinetic analysis of BTSA1.2 in mice; assay type: in vivo; settings: for AUC(0-inf): read-out: AUCinf_obs; for MRT inf: read-out: MRTINF_obs
Procedure: […] […]. ICR (CD-1) male mice were fasted at least 3 hrs and water was available ad libitum before the study. Animals were housed in a controlled environment, target conditions: temperature 18-29° C., relative humidity 30 to 70%. Temperature and relative humidity were monitored daily. […] Experiments performed at […] joint Biopharmacy Laboratory.

in vivo = settings: both, CD1-IGS, mouse, po
Procedure: MAXIMUM TOLERATED DOSE (MTD) AND IN VIVO TOXICITY STUDIES. […] Mice were monitored daily and body weight was monitored at the indicated days. After 14 days of the first treatment, mice were subject to euthanasia and necropsy (Histology and Comparative Pathology Facility, Albert Einstein College of Medicine) and tissues (e.g. spleen, liver, kidney, lung, heart) were harvested for fixation in 10% buffered formalin (Fisher Scientific) for pathology analysis. […] Blood counts were determined on a Forcyte Veterinary Hematology Analyzer (Oxford Science Inc.). […] Histological evaluation of tissues and necropsy performed by the Histology and Comparative Pathology Facility board-certified veterinary pathologist.

SW480 xenograft = experiment: SW480 tumor xenograft efficacy and pharmacodynamic study; assay type: in vivo, nu/nu nude mice; settings: 200 mg/kg BTSA1.2, 100 mg/kg Navitoclax, oral daily
Text: TUMOR XENOGRAFT STUDIES. 6-8 weeks old nu/nu nude male mice were purchased from Charles River. […] For efficacy the efficacy study, treatments started once tumors reached a volume of ˜200 mm^3. […] Body weight of mice were monitored during treatment. For the pharmacodynamic study, treatments started once tumors reached a volume of ˜400 mm^3, after 3 days of daily treatment mice were euthanized and tumors were collected for analysis. Ex-Vivo BHS PROFILING. SW480 xenograft vehicle and combination treated tumors, and COLO-1 and COLO-2 PDX tumors were analyzed by BH3 profiling under basal conditions. Single cells from tumors were isolated by mechanically pass them through a […] strainer filter with cold PBS. SW480 xenograft tumors: […] PDX tumors: […] Single cell suspensions were prepared in 1:1 JC-1-MEB buffer, as previously described, and were kept at room temperature for 10 min to allow for cell permeabilization and dye equilibration. After adding the cells to the 384-well plate, 2.0×10^4 cells/well, fluorescence was measured at 590 nm emission 545 nm excitation using the M1000 microplate reader (TECAN) at 30° C. every 15 min for a total of 2 hrs.

[3] = BTSA1.2 and Navitoclax combination in vivo toxicity study; design: species or system CD1-IGS mice; settings: 200 mg/kg BTSA1.2, 100 mg/kg Navitoclax, oral daily for 7 days
Text: 6-8 weeks old CD1-IGS male mice were purchased from Charles River. […] Mice were monitored daily; body weight and peripheral blood counts were monitored at the indicated days.

COLO-1 PDX = experiment: COLO-1 patient-derived xenograft efficacy study; assay type: in vivo, NOD SCID mice; settings: 200 mg/kg BTSA1.2, 50 mg/kg Navitoclax, oral daily up to 18 days
Text: 6-8 weeks old NOD SCID male mice were purchased from Charles River. […] PDX characterization: mice were divided into two groups COLO-1 and COLO-2 (n=3) were divided into two groups. Tumor was collected once tumor reached a volume of ˜1,000 mm^3. […] Treatments started once tumors reached a volume of ˜200 mm^3. Tumor volume was monitored every 3-4 days by caliper measurements until the cessation of the experiment when tumors reached an ethically unacceptable size or after 18 days of daily treatment (whichever came first). Body weight of mice were monitored during treatment.

COLO230 = experiment: Cell viability (CellTiter-Glo), COLO230; assay type: cell-based, human; settings: COLO230, 72 hrs
Procedure: as §1

OCI-AML3 = experiment: Cell viability (CellTiter-Glo), OCI-AML3; assay type: cell-based, human; settings: OCI-AML3, 72 hrs
Procedure: as §1

U937 = experiment: Cell viability (CellTiter-Glo), U937; assay type: cell-based, human; settings: U937, 72 hrs
Procedure: as §1

[4] = previously determined by Tse et al; cited from earlier work
BAX:BCL-XL complexes = molecular target: T3, BAX:BCL-XL complexes (Homo sapiens, UniProt Q07812); experiment: BAX co-immunoprecipitation and immunoblotting; assay type: cell-based; settings: 4 hrs treatment
T3 construct: endogenous in cells; host or cells: BxPC-3, SW480, Calu-6
T3 sequence (Q07812 whole entry, one chain of several): as the sequence (Q07812 whole entry) above
Procedure: Protein lysates were obtained by cell lysis in 0.2% NP-40 buffer (50 mM Tris-HCL, 150 mM NaCl, 1 mM EDTA, 10% Glycerol, 0.2% NP-40, pH 7.50) Immunoprecipitation was performed in 600 mL of 400 μg of proteins, which was precleared by centrifugation followed by exposure to 12 μL (50% slurry) protein A/G beads (Santa Cruz) at 4° C. for 30 min. […] Samples were then exposed to 20 μL (50% slurry) protein A/G beads (Santa Cruz) at 4° C. for 2 hrs and later centrifuged and washed three times with 0.2% NP-40 buffer and boiled in loading buffer (Life Technologies). […] For visualization of proteins with Odyssey Infrared Imaging System (LI-COR Biosciences) membranes were blocked in Odyssey Blocking Buffer (LI-COR Biosciences). Primary antibodies were incubated overnight at 4° C. in a 1:1,000 dilution. After washes, membranes were incubated with an IRdye800-conjugated goat anti-rabbit IgG or IRdye800-conjugated goat anti-mouse IgG secondary antibodies (LI-COR Biosciences) in a 1:10,000 and 1:20,000 dilution, respectively.
After 2 hr, FBS was supplemented to a final concentration of 10%. […] The supernatants were isolated by centrifugation at 15,000×g for 10 min and the mitochondrial pellets solubilized in NP-40 lysis buffer (50 mM Tris-HCL pH 7.4, 150 mM NaCl, 5 mM MgCl2, 1 Mm EGTA, 10% Glycerol, 0.2% NP-40). […]

Calu-6 BAX KO cells = experiment: Viability and caspase 3/7 in WT and CRISPR/Cas9 BAX KO Calu-6 cells; assay type: cell-based, human
Procedure: as §1
Assays were performed at least in triplicate.

[5] = SU-DHL-5, 72 hrs, read-out: Viability Inhibition- SU- DHL5- IC50
[6] = male, ICR (CD-1), mouse, IV 1 mg/kg, mice plasma, Mean
[7] = male, ICR (CD-1), mouse, PO 3 mg/kg, mice plasma, Mean
[8] = SU-DHL-5, 72 h, read-out: Viability Inhibition- SU- DHL5- IC50 (μM)

CN(C)CC[C@H](CSc1ccccc1)Nc1ccc(S(=O)(=O)NC(=O)c2ccc(N3CCN(Cc4ccccc4-c4ccc(Cl)cc4)CC3)cc2)cc1[N+](=O)[O-] [ABT-737]
affinity (BCL-w): < 1 mol/L | affinity (BCL-XL): < 1 mol/L | affinity (BCL-2): < 1 mol/L

CCOc1ccccc1NN=C1C(=O)N(c2nc(-c3ccccc3)cs2)N=C1C [BAM7, reference compound]
IC50 (SU-DHL5; [5]): > 25 µM

Cc1nc(N/N=C2\C(=O)N(c3nc(-c4ccccc4)cs3)N=C2c2ccccc2)sc1C [BTSA1.2, 4-(2-(4,5-dimethylthiazol-2-yl)hydrazono)-5-phenyl-2-(4-phenyl-thiazol-2-yl)-2,4-dihydro-3H-pyrazol-3-one]
IC50 [1]: < 3000 nM | IC50 (BAX): 109 nM | single agent effect on cell viability (SW480): resistant | IC50 (solid tumor cell lines; 72 h): > 10000 nM | CL_obs ([2]; IV 1 mg/kg, mice plasma, Mean): 0.282 | VSS_obs ([2]; IV 1 mg/kg, mice plasma, Mean): 555.803 | bioavailability ([2]; male, ICR (CD-1), mouse, plasma, 3 mg/kg, oral administration, mice, read-out: oral bioavailability (% F)): ~50% | Cmax ([2]; male, ICR (CD-1), mouse, plasma, 3 mg/kg, oral administration, mice, read-out: peak concentration (Cmax)): ~8 µM | AUC ([2]; male, ICR (CD-1), mouse, plasma, 3 mg/kg, oral administration, mice, read-out: plasma exposure (AUC)): ~100 µM·h | half-life ([2]; male, ICR (CD-1), mouse, plasma, iv, 1 mg/kg, IV 1 mg/kg, mice plasma, Mean, read-out: T1/2 (converted)): 24.6 h | half-life ([2]; male, ICR (CD-1), mouse, plasma, po, 3 mg/kg, PO 3 mg/kg, mice plasma, Mean, read-out: T1/2 (converted)): 14.4 h | half-life ([2]; male, ICR (CD-1), mouse, plasma, po, 3 mg/kg, oral administration, read-out: half-life (T1/2) in mouse plasma (converted)): ~14 h | bioavailability ([2]; male, ICR (CD-1), mouse, plasma, PO 3 mg/kg vs IV 1 mg/kg, mice, read-out: F(%)): 49.2% | AUC(0-t) [2, 6]: 31900 ng·h/mL | Tmax [2, 6]: 2 h | AUC(0-inf) [2, 6]: 67700 ng·h/mL | Cmax ([2]; male, ICR (CD-1), mouse, IV 1 mg/kg, mice plasma, Mean, read-out: Cmax): 2670 ng/mL | MRT inf [2, 6]: 35.7 h | AUC(0-t) [2, 7]: 47000 ng·h/mL | Tmax [2, 7]: 3.33 h | AUC(0-inf) [2, 7]: 70000 ng·h/mL | Cmax ([2]; male, ICR (CD-1), mouse, PO 3 mg/kg, mice plasma, Mean, read-out: Cmax): 3690 ng/mL | MRT inf [2, 7]: 21.7 h | half-life (T1/2) in mouse plasma ([2]; oral administration): ~15 h | MTD (in vivo): 200 mg/kg | tumor growth (SW480 xenograft): no significant efficacy in reducing tumor growth | body weight, blood counts and organs [3]: body weight and blood counts were measured in normal levels but reduction in white blood cells and lymphocytes counts was observed after repeated dosing | necropsy finding (200 mg/kg BTSA1, 300 mg/kg BTSA1.2, oral gavage daily): die by kidney failure after 3 days of treatment | body weights and organ histology (BTSA1.2 up to 200 mg/kg oral): constant body weights and organs examined were between normal histologic limits | dose limiting toxicity (DLT) (oral daily for 5 days): 300 mg/kg | tumor growth (COLO-1 PDX): some PDX showed to respond to BTSA1.2 only treatment as their tumor growth was suppressed | IC50 (SU-DHL5; [8]): 0.23 µM

O=C1/C(=N\Nc2nccs2)C(c2ccccc2)=NN1c1nc(-c2ccccc2)cs1 [BTSA1]
IC50 (SU-DHL5; [8]): 0.4 µM

CC1=NN(c2nc(-c3ccccc3)cs2)C(=O)C1=NNc1nccs1 [Compound 3]
IC50 (BAX): 2380 nM | IC50 (SU-DHL5; [5]): > 25 µM

O=C(O)c1cccc(NN=C2C(=O)N(c3nc(-c4ccccc4)cs3)N=C2c2ccccc2)c1 [Compound 5]
IC50 (BAX): 497 nM | IC50 (SU-DHL5; [8]): 2.8 µM

Cc1c(-c2ccc(N3CCc4cccc(C(=O)Nc5nc6ccccc6s5)c4C3)nc2C(=O)O)cnn1CC12CC3CC(CC(C3)C1)C2 [Compound A-1331852]
single agent effect on cell viability (COLO230): not effective | single agent effect on cell viability (OCI-AML3): moderately potent as single agent | single agent effect on cell viability (SW480): potent | single agent effect on cell viability (U937): moderately potent as single agent

CC1(C)CCC(c2ccc(Cl)cc2)=C(CN2CCN(c3ccc(C(=O)NS(=O)(=O)c4ccc(N[C@H](CCN5CCOCC5)CSc5ccccc5)c(S(=O)(=O)C(F)(F)F)c4)cc3)CC2)C1 [Navitoclax, 4-(4-{[2-(4-Chlorophenyl)-5,5-dimethyl-1-cyclohexen-1-yl]methyl}-1-pipera-zinyl)-N-[(4-{[(2R)-4-(4-morpholinyl)-1-(phenylsulfanyl)-2-butanyl]amino}-3-[(trifluoromethyl)sulfonyl]phenyl)sulfonyl]benzamide, reference compound]
MTD [4]: 100 mg/kg/po | single agent effect on cell viability (SW480): resistant | IC50 (solid tumor cell lines; 72 hrs, solid tumor cell lines): > 10000 nM | tumor growth (SW480 xenograft): no significant efficacy in reducing tumor growth | body weight, blood counts and organs [3]: lymphocyte, white blood cell and platelet counts reached levels below normal counts upon a single treatment | BAX:BCL-XL complexes by BAX co-immunoprecipitation (BAX:BCL-XL complexes): disrupted BAX:BCL-XL complexes

CN[C@@H]1C[C@H]2O[C@@](C)([C@@H]1OC)n1c3ccccc3c3c4c(c5c6ccccc6n2c5c31)C(=O)NC4 [staurosporine]
sensitivity of Calu-6 cells lacking BAX expression (Calu-6 BAX KO cells): still sensitive
